In patent US11632972B2, “S-nitrosothiol compounds and their combinations with nitrosamine blocking agents for safe food preservation” (YISSUM RESEARCH DEVELOPMENT COMPANY OF THE HEBREW …, priority 2017, dated 2023):

Key:
[1] = Formation of N-nitroso-N-methylaniline from N-methylaniline with nitrosilating agent (2.5 mM) in citrate buffer at 37° C.; settings: 2.5 mM agent, 2.5 mM N-methylaniline, pH 6.2
Description: The HPLC separation was performed on a Merck/Hitachi HPLC system consisting of a LaChrom L 7100 pump and a LaChrom DAD L 7450 detector. The system was operated with a data processor working with a LaChrom interface D 7000 and the EZChrom Elite 3.3.1 software. The mixture was separated on a Kinetex EVO C18 column (250×4.6 mm, 5 μm) using a gradient elution system, solvent A was 5% acetonitrile in water (v/v) and B was acetonitrile. Gradient conditions were initial=0% B, 25 min=70% B and 30 min=100% B. The flow rate was constant at 1.0 mL min^−1. The injection loop volume was 20 μL, absorbance was monitored at 272 nm.
The experiment of Example 1 was repeated with a tenfold increase of concentration of the reactants. That is, reaction mixtures were prepared by mixing in citrate buffer, at pH=3.0 and at pH=6.2, N-methylaniline (2.5 mM) and NaCl (2.5 mM) together with an equimolar amount of the tested nitrosilating agent, used either alone or in combination with ascorbic acid, as set out below: […]

[2] = test system: naturally occurring bacteria; assay: Aerobic colony count in ground beef shoulder; settings: 2.5 mM preservative; for bacteria count (aerobic colony count): after 1 week of storage at 4° C.; for bacteria concentration (aerobic colony count): after 4 weeks at 4° C.
Description: 10 gr of ground beef shoulder was mixed with 1 ml (25 mM) aqueous solution of the tested preservative (Sodium nitrite, S-nitroso-cysteine and S-nitroso-N-acetylcysteine) or DDW for control and 1 ml of NaCl solution (10% w/v). The final concentrations were 2.5 mM preservative (where Kg meat=L) and 1% (w/w) NaCl. The meat was divided to 1 gr portions and placed in open vacuum bags, then heated in a water bath at 75° C. for 15 min and sealed by […] C100 at a vacuum of 8 mbar. The bags were transferred to 4° C. for cooling and storage. After time periods of 1 hr, 1 week and 4 weeks elapsed, the bags were opened in a hood and 1 gr of meat was homogenized in a sterile grinder with 9 ml of sterile saline, then the homogenate was diluted further with saline and the diluents were plated on BHI agar plates. The plates were incubated at 30° C. for 24 hours then colonies were counted and CFU calculated.

[3] = Effect on the color of the meat (Hunter L*, a*, b*, colorimeter); design: species or system beef; settings: aerobic conditions, period of 24 h
Description: Nitrite is known to be responsible for the characteristic pink color associated with cured meat products and flavor stabilization. The color development and color stability of ground beef treated S-nitroso-cysteine and S-nitroso-N-acetylcysteine after heating to 72° C. was compared to the color of ground beef treated with nitrite. A portable colorimeter (X-rite) was used to measure Hunter color lightness, redness and yellowness (L*, a*, b*) values of ground beef samples treated with the different additives and heated in a microwave oven (Dow, S-Korea, at 800 W) to 72° C. in the center. The instrument was standardized using white and black standard plates.

[4] = test system: naturally occurring bacteria; assay: Aerobic colony count in smoked beef shoulder pastrami; settings: pastrami stored at 4° C. for three months; amount equivalent to 150 ppm sodium nitrite; plates 30° C. 24 hr
Description: Aerobic colony count of naturally occurring bacteria in smoked beef shoulder pastrami: 5 gr of the pastrami manufactured in a meat factory as described above were homogenized in a sterile grinder with 45 ml of sterile saline, then further diluted with saline. The diluents were plated on BHI agar plates and incubated at 30° C. for 24 hr then colonies were counted and CFU calculated.

Row | Structure (SMILES) | kinetics of N-nitroso-methylaniline formation (UV absorbance at 270 nm versus time) [1] | bacteria count (aerobic colony count) [2] | bacteria concentration (aerobic colony count) [2] | color stability (ΔE*) over time [3] | aerobic colony count (concentration of bacteria) [4]
1 | N[C@@H](CSN=O)C(=O)O [S-nitroso-cysteine, S-nitrosocysteine] | reacts rapidly with N-methylaniline to produce progressively increasing amounts of nitrosamine | ~2.0*10^2 cfu/ml | lower bacteria concentration |  | 
2 | O=NO [sodium nitrite] |  | 5.8*10^3 cfu/ml | ~10^8 | decreased over time | 8*10^3 CFU/ml
3 | CC(=O)N[C@@H](CSN=O)C(=O)O [S-nitroso-N-acetylcysteine] | significantly lesser | ~2.0*10^2 cfu/ml | lower bacteria concentration | remained stable | 7*10^3 CFU/ml
